Tests used:
[1] = target: T1, TYK2 kinase domain (JH1) (Homo sapiens, UniProt P29597); assay: HTRF-based selectivity assay, TYK2 catalytic domain; type: biochemical; settings: 20 μM ATP
T1 construct: recombinant purified His or GST-tagged catalytic domain for each enzyme; made in house
T1 sequence (P29597 897-1176 limits assumed): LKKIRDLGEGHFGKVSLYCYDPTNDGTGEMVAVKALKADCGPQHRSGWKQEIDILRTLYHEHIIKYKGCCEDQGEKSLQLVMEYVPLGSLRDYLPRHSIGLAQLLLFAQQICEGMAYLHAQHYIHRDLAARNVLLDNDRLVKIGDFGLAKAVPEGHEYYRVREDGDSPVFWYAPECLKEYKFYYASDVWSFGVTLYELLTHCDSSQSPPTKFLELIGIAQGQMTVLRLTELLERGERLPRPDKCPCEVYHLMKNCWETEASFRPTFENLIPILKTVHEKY
Experimental: (§1) Example B-2: HTRF-Based Selectivity Assay
(§2) The ability of compounds to inhibit the activity of JAK1, JAK2, JAK3 and TYK2 is measured using a recombinant purified His or GST-tagged catalytic domain for each enzyme (JAK1, JAK2 and TYK2 are generated in-house; JAK3 was purchased from Carna biosciences, Cat #08-046) in an HTRF format biochemical assay. The reactions employs a commercial peptide substrate from Cisbio (Cat #62TK0PEC). The basic assay protocol is as follows: first, 2.5 μL of diluted compounds (4×) in DMSO are dispensed into a 384-well Optiplate. Next, 2.5 μL of enzyme (final concentrations for enzymes are: TYK2—700 ng/mL, JAK1—80.6 ng/mL, JAK2—2.1 ng/mL and JAK3—171.8 ng/mL) is added and incubated at RT for 5-20 min. Finally, 5 μl of mixture of 2×ATP [Final concentration 20 μM for TYK2, 21.43 μM for JAK1, 14.7 μM for JAK2 and 2.12 μM for JAK3]+2× Substrate [Final concentration 217 nM for TYK2, 454.7 nM for JAK1, 200 nM for JAK2 and 257.4 nM for JAK3] is added to 384 well Optiplate. Composition of Kinase assay buffer used in the assay is as follows: HEPES 50 mM, EGTA 1 mM, MgCl2 10 mM, DTT 2 mM, Tween-20 0.01% and water. Then the plates are shaken and then incubated at 26.5° C. for 60 min.

[2] = target: T2, JAK3 kinase domain (JH1) (Homo sapiens, UniProt P52333); assay: HTRF-based selectivity assay, JAK3 catalytic domain; type: biochemical; settings: 2.12 μM ATP
T2 construct: recombinant purified His or GST-tagged catalytic domain for each enzyme; purchased Carna biosciences 08-046
Experimental: as §1, §2

[3] = test system: TYK2 pseudokinase (JH2); IFNα-stimulated HEK-Blue IFNα/β cells; assay: HEK-Blue IFNα/β reporter assay (STAT1-inducible SEAP) for profiling TYK2 pseudokinase (JH2) inhibition; type: cell-based; settings: 1 ng/mL human recombinant IFNα, SEAP readout, read-out: IFNα (TYK2 inhibitory activity, IC50)
Experimental: (§3) Example B-1: HEK-Blue™ IL-23 and IFNα/β Reporter Assays for Profiling TYK2 Pseudokinase (JH2) Inhibition
(§4) HEK-Blue™ IL-23 and IFNα/β cells with a stably-integrated cytokine receptor and STAT3 or STAT1 express STAT-inducible secreted embryonic alkaline phosphatase (SEAP) reporter gene upon cytokine stimulation. These cells are plated in DMEM (Gibco) containing 10% heat-inactivated FBS (Gibco) and 100 U/mL PenStrep (Gibco) at 37° C. under 5% CO2 conditions for 20-22 hours. The cells are then pretreated with serially diluted test compounds for 60 min prior to stimulation with either 10 ng/mL human recombinant IL-23 (Miltenyl Biotech) or 1 ng/mL human recombinant IFNα (InvivoGen) for 22-24 hours for IL-23 or 16-18 h for IFNα. SEAP induction is measured using the QUANTI Blue™ Solution (InvivoGen) according to the manufacturer's instructions.

[4] = target: T3, JAK1 kinase domain (JH1) (Homo sapiens, UniProt P23458); assay: HTRF-based selectivity assay, JAK1 catalytic domain; type: biochemical; settings: 21.43 μM ATP, read-out: JAK-JHI (IC50)
T3 construct: recombinant purified His or GST-tagged catalytic domain for each enzyme; made in house
Experimental: as §1, §2

[5] = target: T4, JAK2 kinase domain (JH1) (Homo sapiens, UniProt O60674); assay: HTRF-based selectivity assay, JAK2 catalytic domain; type: biochemical; settings: 14.7 μM ATP
T4 construct: recombinant purified His or GST-tagged catalytic domain for each enzyme; made in house
Experimental: as §1, §2

[6] = test system: TYK2 pseudokinase (JH2); IL-23-stimulated HEK-Blue IL-23 cells; assay: HEK-Blue IL-23 reporter assay (STAT3-inducible SEAP) for profiling TYK2 pseudokinase (JH2) inhibition; type: cell-based; settings: 10 ng/mL human recombinant IL-23, SEAP readout, read-out: IL23 (TYK2 inhibitory activity, IC50)
Experimental: as §3, §4

[7] = test system: IL-2-stimulated HEK-Blue IL-2 reporter cells; assay: HEK-Blue IL-2 reporter assay (STAT5-inducible SEAP) for determining selectivity; type: cell-based; settings: 4 ng/mL human recombinant IL-2, 24 hours
Experimental: (§5) Example B-3: HEK-Blue™ IL-2 and IFNγ Reporter Assays for Determining Selectivity
(§6) HEK-Blue™ IL-2 and IFNγ reporter cells with a stably-integrated cytokine receptor and STAT5 or STAT1 express STAT-inducible secreted embryonic alkaline phosphatase (SEAP) reporter gene upon cytokine stimulation. These cells were plated in DMEM (Gibco) containing 10% heat-inactivated FBS (Gibco) and 100 U/mL PenStrep (Gibco) at 37° C. under 5% CO2 conditions for 20-22 hours. The cells were then pretreated with serially diluted test compounds for 60 min prior to stimulation with either 4 ng/mL human recombinant IL-2 (Miltenyl Biotech) or 50 ng/mL human recombinant IFNγ (InvivoGen) for 24 hours. SEAP induction was measured using the QUANTI-Blue™ Solution (InvivoGen) according to the manufacturer's instructions.

[8] = test system: IFNγ-stimulated HEK-Blue IFNγ reporter cells; assay: HEK-Blue IFNγ reporter assay (STAT1-inducible SEAP) for determining selectivity; type: cell-based; settings: 50 ng/mL human recombinant IFNγ, 24 hours, read-out: IFN-γ SEAP selectivity assay IC50
Experimental: as §5, §6

T2 sequence (P52333 822-1111 limits assumed): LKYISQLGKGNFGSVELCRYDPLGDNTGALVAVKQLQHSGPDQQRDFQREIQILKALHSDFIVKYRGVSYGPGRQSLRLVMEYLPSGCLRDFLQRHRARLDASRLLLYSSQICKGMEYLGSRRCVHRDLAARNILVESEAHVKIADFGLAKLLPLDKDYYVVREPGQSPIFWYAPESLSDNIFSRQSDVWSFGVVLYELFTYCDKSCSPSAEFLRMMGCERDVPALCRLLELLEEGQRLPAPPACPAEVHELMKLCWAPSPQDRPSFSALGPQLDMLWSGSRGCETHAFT
T4 sequence (O60674 849-1124 limits assumed): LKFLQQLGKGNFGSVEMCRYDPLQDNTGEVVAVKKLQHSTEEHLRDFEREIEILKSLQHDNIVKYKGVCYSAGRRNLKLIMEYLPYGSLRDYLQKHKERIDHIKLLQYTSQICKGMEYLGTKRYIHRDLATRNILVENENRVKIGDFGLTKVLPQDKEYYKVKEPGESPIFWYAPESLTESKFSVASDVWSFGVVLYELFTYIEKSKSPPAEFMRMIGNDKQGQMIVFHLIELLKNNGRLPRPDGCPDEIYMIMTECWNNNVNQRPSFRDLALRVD
T3 sequence (P23458 875-1153 limits assumed): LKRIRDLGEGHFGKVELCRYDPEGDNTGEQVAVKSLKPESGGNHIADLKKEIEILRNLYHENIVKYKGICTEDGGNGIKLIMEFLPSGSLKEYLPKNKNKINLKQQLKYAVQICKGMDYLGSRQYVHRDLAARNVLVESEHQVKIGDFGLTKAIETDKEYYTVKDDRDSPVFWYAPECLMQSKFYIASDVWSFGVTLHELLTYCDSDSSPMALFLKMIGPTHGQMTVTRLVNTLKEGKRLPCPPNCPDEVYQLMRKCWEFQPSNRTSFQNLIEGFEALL

| IC50 [1] | IC50 [2] | IC50 [4] | IC50 [5] | SMILES | IC50 [3] | IC50 [6] | IC50 [7] | IC50 [8] |
| --- | --- | --- | --- | --- | --- | --- | --- | --- |
| > 1000 nM | > 1000 nM | > 1000 nM | > 1000 nM | [2H]C([2H])([2H])NC(=O)c1cnc(NC(=O)C2CC2)cc1Nc1cccc2c1N(C)[C@@H](C)c1cn(C)nc1-2 (single isomer, unassigned) [Compound 30] | < 30 nM | < 30 nM | – | – |
| > 1000 nM | > 1000 nM | > 1000 nM | > 1000 nM | [2H]C([2H])([2H])NC(=O)c1cnc(NC(=O)[C@H]2C[C@H]2F)cc1Nc1cccc2c1N(C)Cc1cn(C)nc1-2 (single isomer, unassigned) [Compound 32] | < 30 nM | < 30 nM | > 1000 nM | – |
| > 1000 nM | 300 to 1000 nM | > 1000 nM | 30 to 300 nM | [2H]C([2H])([2H])NC(=O)c1nnc(NC(=O)C2CC2)cc1Nc1nccc2c1N(C)[C@H](C)c1cn(C)nc1-2 (single isomer, unassigned) [Compound 70] | < 30 nM | < 30 nM | > 1000 nM | – |
| 300 to 1000 nM | > 1000 nM | > 1000 nM | > 1000 nM | CNC(=O)c1nnc(Nc2ccc(F)cn2)cc1Nc1cccc2c1OCc1cn(C)nc1-2 [Compound 1, 6-((5-fluoropyridin-2-yl)amino)-N-methyl-4-((2-methyl-2,4-dihydrochromeno[4,3-c]pyrazol-6-yl)amino)pyridazine-3-carboxamide] | 30 to 300 nM | 30 to 300 nM | 300 to 1000 nM | 300 to 1000 nM |
| > 1000 nM | > 1000 nM | > 1000 nM | > 1000 nM | CNC(=O)c1nnc(NC(=O)C2CC2)cc1Nc1cccc2c1OCc1cn(C)nc1-2 [Compound 2, 6-(cyclopropanecarboxamido)-N-methyl-4-((2-methyl-2,4-dihydrochromeno [4,3-c]pyrazol-6-yl)amino)pyridazine-3-carboxamide] | 300 to 1000 nM | 30 to 300 nM | > 1000 nM | 300 to 1000 nM |
| > 1000 nM | > 1000 nM | > 1000 nM | > 1000 nM | [2H]C([2H])([2H])NC(=O)c1nnc(Nc2ccc(F)cn2)cc1Nc1cccc2c1OCc1cn(C)nc1-2 [Compound 5, 6-((5-fluoropyridin-2-yl)amino)-N-(methyl-d3)-4-((2-methyl-2,4-dihydrochromeno[4,3-c]pyrazol-6-yl)amino)pyridazine-3-carboxamide] | 30 to 300 nM | < 30 nM | > 1000 nM | > 1000 nM |
| > 1000 nM | > 1000 nM | > 1000 nM | > 1000 nM | [2H]C([2H])([2H])NC(=O)c1cnc(NC(=O)C2CC2)cc1Nc1cccc2c1OCc1cn(C)nc1-2 [Compound 6, 6-(cyclopropanecarboxamido)-N-(methyl-d3)-4-((2-methyl-2,4-dihydrochromeno[4,3-c]pyrazol-6-yl)amino)nicotinamide] | 30 to 300 nM | 30 to 300 nM | > 1000 nM | > 1000 nM |
| > 1000 nM | > 1000 nM | > 1000 nM | > 1000 nM | [2H]C([2H])([2H])NC(=O)c1cnc(Nc2ccc(F)cn2)cc1Nc1cccc2c1OCc1cn(C)nc1-2 [Compound 7, 6-((5-fluoropyridin-2-yl)amino)-N-(methyl-d3)-4-((2-methyl-2,4-dihydrochromeno[4,3-c]pyrazol-6-yl)amino)nicotinamide] | 300 to 1000 nM | 30 to 300 nM | > 1000 nM | 300 to 1000 nM |
| – | > 1000 nM | > 1000 nM | > 1000 nM | [2H]C([2H])([2H])NC(=O)c1nnc(NC(=O)C2CC2)cc1Nc1cccc2c1N(C([2H])([2H])[2H])Cc1cn(C)nc1-2 [Compound 28, 6-(cyclopropanecarboxamido)-N-(methyl-d3)-4-((2-methyl-5-(methyl-d3)-4,5-dihydro-2H-pyrazolo[4,3-c]quinolin-6-yl)amino)pyridazine-3-carboxamide] | < 30 nM | < 30 nM | 300 to 1000 nM | 30 to 300 nM |
| > 1000 nM | > 1000 nM | > 1000 nM | > 1000 nM | [2H]C([2H])([2H])NC(=O)c1cnc(NC(=O)C2CC2)cc1Nc1cccc2c1N(C)C([2H])([2H])c1cn(C)nc1-2 [Compound 35, 6-(cyclopropanecarboxamido)-4-((2,5-dimethyl-4,5-dihydro-2H-pyrazolo[4,3-c]quinolin-6-yl-4,4-d2)amino)-N-(methyl-d3)nicotinamide] | < 30 nM | < 30 nM | > 1000 nM | – |
| > 1000 nM | > 1000 nM | > 1000 nM | > 1000 nM | [2H]C([2H])([2H])NC(=O)c1nnc(NC(=O)C2CC2)cc1Nc1nccc2c1N(C)Cc1cc(C)nn1-2 [Compound 68, 6-(cyclopropanecarboxamido)-4-((2,5-dimethyl-4,5-dihydropyrazolo[1,5-a]pyrido[3,4-e]pyrazin-6-yl)amino)-N-(methyl-d3)pyridazine-3-carboxamide] | < 30 nM | < 30 nM | > 1000 nM | – |
| > 1000 nM | > 1000 nM | – | > 1000 nM | Cn1cc2c(n1)-c1cccc(Nc3cc(NC(=O)C4CC4)nc4[nH]n(C)c(=O)c34)c1OC2 [Compound 88, N-(2-methyl-4-((2-methyl-2,4-dihydrochromeno[4,3-c]pyrazol-6-yl)amino)-3-oxo-2,3-dihydro-1H-pyrazolo[3,4-b]pyridin-6-yl)cyclopropanecarboxamide] | > 1000 nM | 300 to 1000 nM | > 1000 nM | > 1000 nM |
| > 1000 nM | > 1000 nM | – | > 1000 nM | CN1Cc2cn(C)nc2-c2cccc(Nc3cc(NC(=O)C4CC4)nc4[nH]n(C)c(=O)c34)c21 [Compound 89, N-(4-((2,5-dimethyl-4,5-dihydro-2H-pyrazolo[4,3-c]quinolin-6-yl)amino)-2-methyl-3-oxo-2,3-dihydro-1H-pyrazolo[3,4-b]pyridin-6-yl)cyclopropanecarboxamide] | 30 to 300 nM | < 30 nM | > 1000 nM | > 1000 nM |
